The values that follow come from article PMC6345968, “Structural basis for species-selective targeting of Hsp90 in a pathogenic fungus” (Nature Communications, 2019).

Data set [1] relates to S. cerevisiae expressing C. albicans Hsp90. As to the kind of experiment: Broth microdilution growth inhibition (MIC), yeast with C. albicans Hsp90 as sole Hsp90. As to conditions: twofold dilution series, heat map. It counts as cell-based, Saccharomyces cerevisiae. An excerpt: (§1) A critical consideration in the development of an effective antifungal is not just target binding, but also access to the target across microbial cell membranes and cell walls. Therefore, we evaluated the potency and selectivity of oxime analogs using drug susceptibility assays. We used strains of S. cerevisiae where both endogenous genes encoding isoforms of Hsp90 have been disrupted and growth is solely dependent upon C. albicans or human Hsp90 isoforms.
(§2) Antifungal tolerance and resistance were determined in flat bottom, 96-well microtiter plates using a modified broth microdilution protocol as described[8],[10]. All Hsp90 inhibitors were formulated in dimethyl sulfoxide (DMSO, Sigma Aldrich Co.); fluconazole was dissolved in sterile ddH2O. Each strain was tested in duplicate on at least two occasions. […] To test for fungicidal activity, cultures from MIC plates were spotted on YPD agar plates using a spotter (Frogger, V&P Scientific, Inc). Plates were photographed after 48 h of incubations at 30 °C.
For orientation: Broth dilution looks for growth in wells or tubes with falling amounts of substance.

In data set [2] the test system is S. cerevisiae expressing human Hsp90α. It is filed as cell-based, Saccharomyces cerevisiae. As to conditions: isogenic strains.
Source text: as §1, §2

Another data set has as its system C. albicans SN95. As to the kind of experiment: Growth inhibition in culture. It is filed as cell-based, Candida albicans. As to conditions: 48-hour exposure.
Source text: (§3) We began by measuring inhibition of C. albicans growth in culture.
(§4) Each colored box represents the mean of duplicate determinations. Color scale for relative growth is provided to far right of panel, green: no inhibition to black: complete inhibition. […] Cultures were then fixed and stained by Periodic Acid-Schiff (PAS) technique to visualize fungal burden (dark red/purple signal) and underlying human cells (light pink signal). Representative fields from conventional light photomicrographs are presented at the same magnification in all panels. The experiment was repeated in two independent biological replicates to confirm results. Scale bar, 100 μm
as §2

Data set [3] relates to C. albicans clinical isolate CaCi-2. Kind of data set: Growth inhibition in culture. As to conditions: 48-hour exposure. It is filed as cell-based, Candida albicans.
Source text: as §3, §4, §2

For another data set, the system named is Raw264.7 macrophages. As to the kind of experiment: Phagocytosis of GFP C. albicans by macrophages, flow cytometry. It is filed as cell-based, mouse. As to conditions: 2 h pre-treatment. Here is the method:
Compromise of host immune function and other target-related toxicities preclude the use of non-species-selective Hsp90 inhibitors in the treatment of fungal infections. Host defense against invasive infection relies heavily on the ingestion and destruction of C. albicans by innate immune cells, such as macrophages. […] After an additional two hours, phagocytosis of the fluorescently labeled fungi was measured by flow cytometry. […] This Hsp90-dependent morphogenetic program has an important role in the organism’s virulence and interactions with host immune effectors such as macrophages.
The ingestion of GFP-marked C. albicans CaCi-2 (CaLC867, Table S4) by mouse macrophages was monitored using flow cytometry. Raw264.7 macrophage cultures were pre-treated with various concentrations of Hsp90 inhibitors for 2 h at 37 °C and then infected with fungus at a multiplicity of infection of ~2 for an additional 2 h. Wells were harvested by trypsinization and resultant cell suspensions incubated with Guava ViaCount reagent per manufacturer’s recommendation (Millipore Sigma, Cat #4000-0040). Red fluorescent signal was used to identify macrophages while green fluorescent signal identified the fungus. Dual positive (red and green) events with appropriate forward- and side-scatter parameters were quantitated as representative of ingestion of fungus by a macrophage. […]
For orientation: A flow cytometer gives signals particle by particle.

Another data set deals with C. albicans CaCi-2. As to the kind of experiment: Checkerboard with fluconazole, Bliss independence. As to conditions: 48 hours. It is filed as cell-based, Candida albicans. The procedure: Each colored box represents the mean of duplicate determinations. […] Error bars, SD.
as §2

Molecules are shown by their SMILES.

For the compound `C[C@@H]1C[C@H]2O[C@@H]2/C=C\C=C\C(=O)Cc2c(Cl)c(O)cc(O)c2C(=O)O1` [radicicol, reference compound], the growth inhibition entry in data set [1] was “significantly inhibit growth”. Further, the “activity compared with strain expressing C. albicans Hsp90” value in data set [2] is recorded as “converse”. Further, the single-agent growth inhibition entry (in the data set with C. albicans SN95; in data set [3]) was “comparable single-agent activity” in each case. Also, the “effect on engulfment of C. albicans” value in the data set on Raw264.7 macrophages is reported as “Neither compound impaired engulfment”. Further, the “Bliss synergy δ with fluconazole” value in the data set on C. albicans CaCi-2 came out at 22.6. For the same compound, the heat-shock reporter activation entry in the data set on 293T reporter cells is on record as “concentration-dependent reporter activation”.
